Measurements as given in US4540700A, “Treatment of diabetic complications with certain spiro-imidazolidine-diones” (Alcon Laboratories, Inc., priority 1984, dated 1985).

System: cataract formation in galactocemic rats
Test: in vivo dose response by intubation (per oral) in galactocemic rats, cataract (vacuole) formation
Design: species or system Charles River CD (Sprague-Dawley derived) male rats
Method: B. In vivo dose response studies were conducted to test the in vivo activity of the following compounds by intubation (per oral) in galactocemic rats on a 30% galactose diet previously described:
Stock suspensions of the test compounds and all dilutions of the compound were formulated with 0.03% by weight Tween 80.
Healthy, Charles River CD (outbred albino, Sprague-Dawley derived) male rats, aged 20-30 days, without observable ocular defects and ranging in weight from 35-45 grams, were acclimated to experimental conditions (in quarantine) for two days prior to beginning the study.
Rats were individually assigned to one of twenty-three groups according to a random number schedule. Two rats, belonging to the same drug-diet treatment group, were housed per cage. Treatment and control groups consisted of six (6) rats each with no replacement in the event of death, and were designated as follows:
Lenses of all eyes were examined with a hand-held ophthalmoscope in the early stages of cataract development and a penlight for the stages, snowflake-like, snowflake, and nuclear cataract. Lens grading occurred every day for the first ten study days, and then every other day until study Day 14.
The relative potency determination was made at 7 drug levels over half log dose intervals. The response (percent cataracts formed and/or the time to cataract formation) was plotted against mg/kg and/or moles/kg.
The study was directed to the suppression and/or elimination of the initial stages of cataract development characterized by vacuoles or snowflake-likeopacities only. It was assumed therefore that suppression and/or elimination of vacuoles or lens opacification by the test drugs affects the transport, absorption and/or metabolism of galactose in such a manner as to prevent subsequent osmotic disturbances normally leading to tissue degeneration and advanced cataract. Advanced cataract defined as stages 2-4 of the Sipple classification was assumed to be of secondary importance to the etiology of cataract inhibition.
In the event where cataract stage other than vacuole formed, such as snowflake-like opacities, this cataract was counted similarly as vacuole in percent cataract formation.
This study yielded this expected effect in the control groups.
All animals were fed Purina Laboratory Chow and water, ad libitum, for the two day acclimation period. All drugs were dosed orally by intubation using an animal feeding needle (Popper and Sons), 18 or 20 gauge, attached to a 1 or 3 ml syringe. Once the dosing time schedule was established, the schedule was followed throughout the study to compensate for any diurnal variation.
The animals were kept on a twelve hour day/night cycle. The temperature and humidity were determined each day at the scheduled dosing time of 1:00 p.m.
The animals were weighed every other day and adjustments to dosage amounts to compensate for weight gain were made each day prior to the dose time. All food was routinely withheld from all animal groups for four hours (9:00 a.m.) prior to the drug dose and restored two hours (3:00 p.m.) post-dose. Otherwise sufficient amounts of chow or diet mixture were maintained in the food hopper to allow the animals to eat ad libitum. There were two days of drug dosage with the animals remaining on Purina Laboratory Chow (Days 1 and 2). The 30% galactose diet mixture was introduced to the animals two hours post-dose on Day 3 which constituted Day 1 of the study.
All eyes were examined with a hand-held ophthalmoscope and/or penlight at the times designated in the Experimental Design section.
It has been found in previous studies that dilation of the eye with a mydriactic (i.e. Mydriacyl) is not necessary for accurate grading, due to the semi-transparent nature of the rat iris. In the early stages (i.e., grades -, ±, and +) the lens was observed by reflecting the ophthalmoscope beam off the retina back through the lens and iris. Using this technique, vacuoles appear as dark, almost opaque patches. […]

O=C1NC(=O)C2(N1)c1cc(F)ccc1-c1ccc(F)cc12 [M, Spiro-[2,7-difluorofluoren-9,4'-imidazolidine]-2',5'-dione]
Percent of Rat Eyes With at Least Vacuoles Formed (0.126 mg/kg p.o., Day 0): 0% | Percent of Rat Eyes With at Least Vacuoles Formed (0.126 mg/kg p.o., Day 1): 0% | Percent of Rat Eyes With at Least Vacuoles Formed (0.126 mg/kg p.o., Day 2): 0% | Percent of Rat Eyes With at Least Vacuoles Formed (0.126 mg/kg p.o., Day 3): 0% | Percent of Rat Eyes With at Least Vacuoles Formed (0.126 mg/kg p.o., Day 4): 0% | Percent of Rat Eyes With at Least Vacuoles Formed (0.126 mg/kg p.o., Day 5): 0% | Percent of Rat Eyes With at Least Vacuoles Formed (0.126 mg/kg p.o., Day 6): 8% | Percent of Rat Eyes With at Least Vacuoles Formed (0.126 mg/kg p.o., Day 7): 25% | Percent of Rat Eyes With at Least Vacuoles Formed (0.126 mg/kg p.o., Day 8): 67% | Percent of Rat Eyes With at Least Vacuoles Formed (0.126 mg/kg p.o., Day 9): 67% | Percent of Rat Eyes With at Least Vacuoles Formed (0.126 mg/kg p.o., Day 10): 67% | Percent of Rat Eyes With at Least Vacuoles Formed (0.126 mg/kg p.o., Day 12): 67% | Percent of Rat Eyes With at Least Vacuoles Formed (0.126 mg/kg p.o., Day 14): 75% | Percent of Rat Eyes With at Least Vacuoles Formed (0.4 mg/kg p.o., Day 0): 0% | Percent of Rat Eyes With at Least Vacuoles Formed (0.4 mg/kg p.o., Day 1): 0% | Percent of Rat Eyes With at Least Vacuoles Formed (0.4 mg/kg p.o., Day 2): 0% | Percent of Rat Eyes With at Least Vacuoles Formed (0.4 mg/kg p.o., Day 3): 0% | Percent of Rat Eyes With at Least Vacuoles Formed (0.4 mg/kg p.o., Day 4): 0% | Percent of Rat Eyes With at Least Vacuoles Formed (0.4 mg/kg p.o., Day 5): 0% | Percent of Rat Eyes With at Least Vacuoles Formed (0.4 mg/kg p.o., Day 6): 0% | Percent of Rat Eyes With at Least Vacuoles Formed (0.4 mg/kg p.o., Day 7): 0% | Percent of Rat Eyes With at Least Vacuoles Formed (0.4 mg/kg p.o., Day 8): 0% | Percent of Rat Eyes With at Least Vacuoles Formed (0.4 mg/kg p.o., Day 9): 0% | Percent of Rat Eyes With at Least Vacuoles Formed (0.4 mg/kg p.o., Day 10): 0% | Percent of Rat Eyes With at Least Vacuoles Formed (0.4 mg/kg p.o., Day 12): 0% | Percent of Rat Eyes With at Least Vacuoles Formed (0.4 mg/kg p.o., Day 14): 0% | Percent of Rat Eyes With at Least Vacuoles Formed (1.26 mg/kg p.o., Day 0): 0% | Percent of Rat Eyes With at Least Vacuoles Formed (1.26 mg/kg p.o., Day 1): 0% | Percent of Rat Eyes With at Least Vacuoles Formed (1.26 mg/kg p.o., Day 2): 0% | Percent of Rat Eyes With at Least Vacuoles Formed (1.26 mg/kg p.o., Day 3): 0% | Percent of Rat Eyes With at Least Vacuoles Formed (1.26 mg/kg p.o., Day 4): 0% | Percent of Rat Eyes With at Least Vacuoles Formed (1.26 mg/kg p.o., Day 5): 0% | Percent of Rat Eyes With at Least Vacuoles Formed (1.26 mg/kg p.o., Day 6): 0.0% | Percent of Rat Eyes With at Least Vacuoles Formed (1.26 mg/kg p.o., Day 6, listed as 2,7-difluoro): 0% | Percent of Rat Eyes With at Least Vacuoles Formed (1.26 mg/kg p.o., Day 7): 0% | Percent of Rat Eyes With at Least Vacuoles Formed (1.26 mg/kg p.o., Day 8): 0% | Percent of Rat Eyes With at Least Vacuoles Formed (1.26 mg/kg p.o., Day 9): 0% | Percent of Rat Eyes With at Least Vacuoles Formed (1.26 mg/kg p.o., Day 10): 0% | Percent of Rat Eyes With at Least Vacuoles Formed (1.26 mg/kg p.o., Day 12): 0% | Percent of Rat Eyes With at Least Vacuoles Formed (1.26 mg/kg p.o., Day 14): 0% | Percent of Rat Eyes With at Least Vacuoles Formed (4.0 mg/kg p.o., Day 0): 0% | Percent of Rat Eyes With at Least Vacuoles Formed (4.0 mg/kg p.o., Day 1): 0% | Percent of Rat Eyes With at Least Vacuoles Formed (4.0 mg/kg p.o., Day 2): 0% | Percent of Rat Eyes With at Least Vacuoles Formed (4.0 mg/kg p.o., Day 3): 0% | Percent of Rat Eyes With at Least Vacuoles Formed (4.0 mg/kg p.o., Day 4): 0% | Percent of Rat Eyes With at Least Vacuoles Formed (4.0 mg/kg p.o., Day 5): 0% | Percent of Rat Eyes With at Least Vacuoles Formed (4.0 mg/kg p.o., Day 6): 0.0% | Percent of Rat Eyes With at Least Vacuoles Formed (4.0 mg/kg p.o., Day 6, listed as 2,7-difluoro): 0% | Percent of Rat Eyes With at Least Vacuoles Formed (4.0 mg/kg p.o., Day 7): 0.0% | Percent of Rat Eyes With at Least Vacuoles Formed (4.0 mg/kg p.o., Day 7, listed as 2,7-difluoro): 0% | Percent of Rat Eyes With at Least Vacuoles Formed (4.0 mg/kg p.o., Day 8): 0.0% | Percent of Rat Eyes With at Least Vacuoles Formed (4.0 mg/kg p.o., Day 8, listed as 2,7-difluoro): 0%
